# Reference: patent publication US20230293469A1, “NOVEL PHARMACEUTICAL COMPOSITIONS” (NEUROPRO THERAPEUTICS, INC., priority 2020, published 2023)
# Where “and” joins values, the source holds several entries; their conditions need not be identical. Equal entries are not always repeated.
# What was measured:
# Human Microsomes = test: Metabolite screening of NPT-2042 in human microsomes; assay type: in vitro ADME; settings: NPT-2042 10 uM, microsomes 1 mg/mL
# Method: Incubation of Test Compound in Microsomes • 1. Compound final concentration: 10 uM. • 2. Microsomes concentration 1 mg/mL. • 3. Incubate for 1 hour, with an NADPH regenerating system. • 4. 0.5 mL of incubation mixture at 0 min and 1 hour, mixed with 0.5 mL of acetonitrile. • 5. Vortex, and centrifuge at 13200 rpm for 10 min. • 6. Supernatant was transferred to a clean vial for LCMS analysis NADPH regenerating system (cofactor; consisting of NADP [0.340 mg/mL], G6P [1.56 mg/mL], and G6PDH [0.4 U/mL] solutions) LC-MS/MS Method: • HPLC Column: Agilent, Polaris 3 […], 150×2.0 mm (S/N: 533819), made in Netherlands. • Guard Column: Agilent, MonoChrom 3 C18 MetaGuard, 10×2.0 mm (S/N: 556145) • Column temperature: 40° C. • Mobile Phase A: 5 mM ammonium format in water (Optima) • Mobile Phase B: acetonitrile (Optima) • Flow rate: 0.2 mL/min • Gradient (Table on right) • MS: Thermo Q Exactive Plus.
# [1] = IV bolus PK of NPT-2042 in rat; assay type: in vivo; settings: IV bolus 10 mg/kg
# [2] = rat, individual rats and Mean (N=3), 10 mg/kg
# [3] = rat, individual rats and Mean (N=3), 10 mg/kg, mean
smiles,measurement,setting,value
"CCCCNc1cc(C(=O)N(Cc2ccccc2)Cc2ccccc2)cc(S(N)(=O)=O)c1Oc1ccccc1 [NPT-2042, N,N-Dibenzyl 3-Aminosulfonyl-5-butylamino-4-phenoxybenzamide]",Human Mic (MS Intensity),"Human Microsomes; 1 hour, NADPH regenerating system",1.64E+08
same,Human Mic (MS Intensity),Human Microsomes; T = 0,3.71E+08
same,clearance,"[1]; in vivo, NPT-2042, rat",48 mL/min/kg
same,Vd,"[1]; in vivo, NPT-2042, rat, read-out: Vz",10.8 L/kg
same,half-life,"[1]; in vivo, NPT-2042, rat, read-out: t½ (converted)",2.61 h
same,AUC(0-inf),"[1]; plasma, NPT-2042, rat",3470 ng·h/mL
same,Cmax,"[1]; plasma, NPT-2042, rat",2510 ng/mL
same,Tmax,"[1]; plasma, NPT-2042, rat",4.8 min
same,"NPT-2042 concentration, Time 0.08 h",[1]; [2],3080 ng/mL and 2720 ng/mL
same,"NPT-2042 concentration, Time 1.00 h",[1]; [2],250 ng/mL and 1190 ng/mL and 924 ng/mL
same,"NPT-2042 concentration, Time 2.00 h",[1]; [2],477 ng/mL and 421 ng/mL
same,"NPT-2042 concentration, Time 4.00 h",[1]; [2],205 ng/mL and 218 ng/mL
same,"NPT-2042 concentration, Time 6.00 h",[1]; [2],203 ng/mL and 145 ng/mL and 60.8 ng/mL
same,"NPT-2042 concentration, Time 8.00 h",[1]; [2],20.0 ng/mL and 33.1 ng/mL and 87.3 ng/mL
same,"NPT-2042 concentration, Time 12.00 h",[1]; [2],60.8 ng/mL and 18.6 ng/mL and 4.67 ng/mL
same,"NPT-2042 concentration, Time 24.00 h",[1]; [2],0.257 ng/mL and 0.582 ng/mL and 1.95 ng/mL
same,"NPT-2042 concentration, Time 0.08 h",[1]; [3],2510 ng/mL
same,"NPT-2042 concentration, Time 1.00 h",[1]; [3],788 ng/mL
same,"NPT-2042 concentration, Time 2.00 h",[1]; [3],405 ng/mL
same,"NPT-2042 concentration, Time 4.00 h",[1]; [3],196 ng/mL
same,"NPT-2042 concentration, Time 6.00 h",[1]; [3],136 ng/mL
same,"NPT-2042 concentration, Time 8.00 h",[1]; [3],46.8 ng/mL
same,"NPT-2042 concentration, Time 12.00 h",[1]; [3],28.0 ng/mL
same,"NPT-2042 concentration, Time 24.00 h",[1]; [3],0.930 ng/mL
same,concentration at 0.08 h,"[1]; rat, plasma, iv, 10 mg/kg, rat, individual rats and Mean (N=3), read-out: NPT-2042 concentration, Time 0.08 h",1720 ng/mL
same,concentration at 2 h,"[1]; rat, plasma, iv, 10 mg/kg, rat, individual rats and Mean (N=3), read-out: NPT-2042 concentration, Time 2.00 h",317 ng/mL
same,concentration at 4 h,"[1]; rat, plasma, iv, 10 mg/kg, rat, individual rats and Mean (N=3), read-out: NPT-2042 concentration, Time 4.00 h",165 ng/mL
